According to ChEMBL document CHEMBL1150369, “Conformation-opioid activity relationships of bicyclic guanidines from 3D similarity analysis” (Bioorg Med Chem, 2008):

Biological target: Kappa-type opioid receptor (Cavia porcellus, UniProt P41144)
Assay: Displacement of [3H]U69593 from kappa opioid receptor in guinea pig brain homogenate
Assay type: tissue-based

Sequence of Kappa-type opioid receptor (P41144 whole entry): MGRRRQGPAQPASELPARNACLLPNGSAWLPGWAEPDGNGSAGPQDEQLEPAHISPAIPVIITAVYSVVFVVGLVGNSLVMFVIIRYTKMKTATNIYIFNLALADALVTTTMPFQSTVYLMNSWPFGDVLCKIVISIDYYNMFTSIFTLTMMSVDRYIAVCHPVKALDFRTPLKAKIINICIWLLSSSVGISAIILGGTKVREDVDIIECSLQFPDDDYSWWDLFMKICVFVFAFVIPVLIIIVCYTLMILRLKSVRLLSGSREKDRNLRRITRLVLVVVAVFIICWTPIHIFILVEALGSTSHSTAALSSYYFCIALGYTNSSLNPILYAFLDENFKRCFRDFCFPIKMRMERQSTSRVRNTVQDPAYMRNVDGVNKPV

Structure (SMILES) | IC50
C1CCC([C@H]2CN3C(=NC[C@@H]3C3CCCCC3)N2CCC23CC4CC(CC(C4)C2)C3)CC1 | 1490 nM
COc1ccc(C[C@H]2CN3C(=NC[C@@H]3C)N2CCC23CC4CC(CC(C4)C2)C3)cc1 | 1530 nM
C1CCC([C@H]2CN3C(=NC[C@H]3C3CCCCC3)N2CCC23CC4CC(CC(C4)C2)C3)CC1 | > 10000 nM
CCOc1ccc(C[C@@H]2CN3C(=NC[C@@H]3C)N2CCC2CC3CCC2C3)cc1 (stereo not given in full) | 185 nM
CCOc1ccc(C[C@@H]2CN3C(=NC[C@@H]3CC)N2CCC2CC3CCC2C3)cc1 (stereo not given in full) | 321 nM
CCCC[C@@H]1CN=C2N(CCC3CC4CCC3C4)[C@H](Cc3ccc(OC)cc3)CN21 (stereo not given in full) | 430 nM
CCC[C@H]1CN=C2N(CC3CCC3)[C@@H](Cc3ccc(OC)cc3)CN21 | > 10000 nM
COc1ccc(C[C@H]2CN3C(=NC[C@@H]3C3CCCCC3)N2CCC23CC4CC(CC(C4)C2)C3)cc1 | 4920 nM
COc1ccc(C[C@@H]2CN3C(=NC[C@@H]3C3CCCCC3)N2CCC23CC4CC(CC(C4)C2)C3)cc1 | > 10000 nM
COc1ccc(C[C@@H]2CN3C(=NC[C@H]3C3CCCCC3)N2CCC23CC4CC(CC(C4)C2)C3)cc1 | > 10000 nM
C1CCC([C@H]2CN3C(=NC[C@H]3C3CCCCC3)N2CCC2CC3CCC2C3)CC1 (stereo not given in full) | 524 nM
CC(C)C[C@@H]1CN2C(=NC[C@H]2C2CCCCC2)N1CC1CCC(C)CC1 (stereo not given in full) | 738 nM
CC(C)C[C@@H]1CN2C(=NC[C@@H]2C2CCCCC2)N1CC1CCC(C)CC1 (stereo not given in full) | 999 nM
C1CCC([C@H]2CN3C(=NC[C@@H]3C3CCCCC3)N2CCC2CC3CCC2C3)CC1 (stereo not given in full) | 560 nM

Next, values leading:

IC50 | Structure (SMILES)
1210 nM | CC(C)C[C@@H]1CN2C(=NC[C@@H]2C2CCCCC2)N1CCC12CC3CC(CC(C3)C1)C2
1750 nM | CC(C)C[C@@H]1CN2C(=NC[C@H]2C2CCCCC2)N1CCC12CC3CC(CC(C3)C1)C2
1940 nM | C[C@H]1CN=C2N(CCC34CC5CC(CC(C5)C3)C4)[C@@H](C3CCCCC3)CN21
3640 nM | CC(C)C[C@@H]1CN2C(=NC[C@@H]2C)N1CCC12CC3CC(CC(C3)C1)C2
151 nM | CCOc1ccc(C[C@@H]2CN3C(=NC[C@@H]3C)N2CCC23CC4CC(CC(C4)C2)C3)cc1
457 nM | COc1ccc(C[C@@H]2CN3C(=NC[C@H]3CC3CCCCC3)N2CCC23CC4CC(CC(C4)C2)C3)cc1
> 10000 nM | COc1ccc(C[C@H]2CN3C(=NC[C@H]3CC3CCCCC3)N2CC2CCCC2)cc1
> 10000 nM | COc1ccc(C[C@H]2CN3C(=NC[C@@H]3C(C)C)N2CC2CCCC2)cc1
> 10000 nM | CC(C)C[C@H]1CN2C(=NC[C@@H]2C)N1CCCC1CCCCC1
> 10000 nM | CC(C)[C@H]1CN2C(=NC[C@@H]2C)N1CCCCC1CCCCC1
> 10000 nM | C[C@H]1CN2C(=NC[C@@H]2C)N1CCC12CC3CC(CC(C3)C1)C2
> 10000 nM | CCC[C@H]1CN=C2N(CC3CCC3)[C@H](Cc3ccc(OC)cc3)CN21
2310 nM | CC(C)C[C@@H]1CN2C(=NC[C@@H]2C)N1CCC1CC2CCC1C2 (stereo not given in full)
5440 nM | CC(C)C[C@@H]1CN2C(=NC[C@@H]2C)N1CCCC1CCCCC1
5060 nM | CC1CCC(CN2C3=NC[C@H](C)N3C[C@@H]2C2CCCCC2)CC1 (stereo not given in full)
1770 nM | CC(C)C[C@@H]1CN2C(=NC[C@H]2C2CCCCC2)N1CCCC1CCCCC1
3740 nM | CC(C)C[C@@H]1CN2C(=NC[C@@H]2C2CCCCC2)N1CCCC1CCCCC1

Biological target: Mu-type opioid receptor (Homo sapiens, UniProt P35372)
Assay: Binding affinity at mu opioid receptor

Sequence of Mu-type opioid receptor (P35372 whole entry): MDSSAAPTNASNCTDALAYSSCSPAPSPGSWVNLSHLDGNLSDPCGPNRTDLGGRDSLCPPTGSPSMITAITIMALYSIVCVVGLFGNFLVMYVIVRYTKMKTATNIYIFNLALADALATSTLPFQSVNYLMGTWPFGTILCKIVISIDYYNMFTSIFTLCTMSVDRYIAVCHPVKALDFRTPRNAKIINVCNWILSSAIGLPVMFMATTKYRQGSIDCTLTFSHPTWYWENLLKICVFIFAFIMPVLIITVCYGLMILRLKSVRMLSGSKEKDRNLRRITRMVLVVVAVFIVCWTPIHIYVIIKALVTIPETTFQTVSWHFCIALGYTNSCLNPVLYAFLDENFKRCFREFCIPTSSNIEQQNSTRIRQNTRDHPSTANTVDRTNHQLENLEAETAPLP

Structure (SMILES) | IC50
COc1ccc(C[C@@H]2CN3C(=NC[C@@H]3C)N2CCC2CC3CCC2C3)cc1 (stereo not given in full) | 20300 nM
COc1ccc(C[C@H]2CN3C(=NC[C@@H]3C)N2CCCC2CCCCC2)cc1 | 421 nM

Biological target: Delta-type opioid receptor (Homo sapiens, UniProt P41143)
Assay: Binding affinity at delta opioid receptor

Sequence of Delta-type opioid receptor (P41143 whole entry): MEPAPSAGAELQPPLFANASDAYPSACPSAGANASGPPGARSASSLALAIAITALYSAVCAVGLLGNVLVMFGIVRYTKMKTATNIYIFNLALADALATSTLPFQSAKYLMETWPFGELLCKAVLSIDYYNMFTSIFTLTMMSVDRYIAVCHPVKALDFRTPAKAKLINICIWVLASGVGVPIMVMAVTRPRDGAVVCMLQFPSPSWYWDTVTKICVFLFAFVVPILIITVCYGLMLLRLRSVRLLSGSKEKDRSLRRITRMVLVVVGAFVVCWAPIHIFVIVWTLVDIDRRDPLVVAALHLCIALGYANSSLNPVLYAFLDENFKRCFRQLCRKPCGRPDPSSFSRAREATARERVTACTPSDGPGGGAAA

Structure (SMILES) | IC50
COc1ccc(C[C@@H]2CN3C(=NC[C@@H]3C)N2CCC2CC3CCC2C3)cc1 (stereo not given in full) | 2070 nM
COc1ccc(C[C@H]2CN3C(=NC[C@@H]3C)N2CCCC2CCCCC2)cc1 | 5460 nM
